Consider 21 molecules from ChEMBL document CHEMBL3044780, “Simple and Rapid Screening Method for Photosystem II Inhibitory Herbicides Using Photoautotrophically Cultured Plant Cells with Chlorophyll Fluorescence Monitoring” (Biosci Biotechnol Biochem, 1993).

Each structure is given as a SMILES string.

The subject of data set [1] is Vigna radiata var. radiata. Put plainly: Herbicidal activity against Vigna radiata var. radiata assessed per 100 m'2 after 10 days by greenhouse pot test. It counts as functional.
A short description of data set [2]: Lipophilicity, log P of the compound. It counts as physicochemical. The settings on record: octanol/water.

`CN(C)C(=O)Nc1cccc(Cl)c1` registered a pLD50 in data set [1] of 2.16. Further, the logP (as a rule, a log measure of how a compound divides between an organic and an aqueous phase) in data set [2] is 2.33.

In the case of `CN(C)C(=O)Nc1cccc(C(F)(F)F)c1` [FLUOMETURON], the pLD50 in data set [1] is listed as 1.3. The molecule also returned a logP in data set [2] of 2.2.

`CN(C)C(=O)Nc1ccc([N+](=O)[O-])cc1` came in with a pLD50 in data set [1] below 0.4. The same molecule gave a logP in data set [2] of 1.43.

In data set [1], `CN(C)C(=O)Nc1ccc(Cl)c(Cl)c1` [DCMU] showed a pLD50 of 2.75.

Regarding `CN(C)C(=O)Nc1ccccc1` [FENURON], the pLD50 in data set [1] was 1.54.

Turning to `CN(C)C(=O)Nc1ccc(C(F)(F)F)cc1`, in data set [1], the pLD50 was 1.45. Further, in data set [2], the logP was determined as 2.31.

For `CN(C)C(=O)Nc1ccc(O)cc1`, the pLD50 in data set [1] was below 0.4. For the same molecule, the logP in data set [2] is 0.37.

As to `CN(C)C(=O)Nc1ccc(C#N)cc1`, the pLD50 in data set [1] is on record as 0.63. Moreover, in data set [2], the logP is 0.97.

`CN(C)C(=O)Nc1ccc(F)cc1`: the pLD50 in data set [1] is 1.67. In data set [2], this molecule had a lipophilicity (logP) of 1.13.

In data set [1], `COc1ccc(NC(=O)N(C)C)cc1` yielded a pLD50 of 1.61. Moreover, in data set [2], the logP turned out to be 1.02.

Turning to `CN(C)C(=O)Nc1cccc(F)c1`, the pLD50 in data set [1] worked out at 1.76. Further, the log partition coefficient (logP) in data set [2] came to 1.37.

As to `Cc1cccc(NC(=O)N(C)C)c1`, the logP in data set [2] is 1.46.

Regarding `CN(C)C(=O)Nc1cccc([N+](=O)[O-])c1`, in data set [1], the pLD50 was below 0.4. The logP in data set [2] stood at 1.33.

In turn, `CN(C)C(=O)Nc1cccc(C#N)c1` registered a pLD50 in data set [1] below 0.4. In addition, in data set [2], the logP was 0.98.

On to `CC(C)c1ccc(NC(=O)N(C)C)cc1` [ISOPROTURON], for which the pLD50 in data set [1] is given as 1.92. For the same molecule, the log partition coefficient (logP) in data set [2] amounted to 2.87.

Consider `Cc1ccc(NC(=O)N(C)C)cc1`, for which the pLD50 in data set [1] is 1.21. This molecule had a logP in data set [2] of 1.41.

`CN(C)C(=O)Nc1ccc(Br)cc1`: the pLD50 in data set [1] is reported as 1.86. In data set [2], this molecule returned a logP of 2.07.

In data set [1], `COc1cccc(NC(=O)N(C)C)c1` returned a pLD50 of 1.15. The molecule also registered a lipophilicity (logP) in data set [2] of 1.22.

Molecule `CN(C)C(=O)Nc1ccc(Cl)cc1` [MONURON] registered a pLD50 in data set [1] of 2.01. Moreover, the logP in data set [2] came to 1.99.

Molecule `CN(C)C(=O)Nc1cccc(O)c1` showed a pLD50 in data set [1] below 0.4.

Consider `CN(C)C(=O)Nc1ccc(I)cc1`, for which the pLD50 in data set [1] came to 1.75. Further, the log partition coefficient (logP) in data set [2] came to 2.36.
